Experiments:
[1] = biological target: T1, Sterol regulatory element-binding protein 2 (Homo sapiens, UniProt Q12772); assay: In Vitro Assay-SREBP-2
T1 sequence (Q12772 whole entry): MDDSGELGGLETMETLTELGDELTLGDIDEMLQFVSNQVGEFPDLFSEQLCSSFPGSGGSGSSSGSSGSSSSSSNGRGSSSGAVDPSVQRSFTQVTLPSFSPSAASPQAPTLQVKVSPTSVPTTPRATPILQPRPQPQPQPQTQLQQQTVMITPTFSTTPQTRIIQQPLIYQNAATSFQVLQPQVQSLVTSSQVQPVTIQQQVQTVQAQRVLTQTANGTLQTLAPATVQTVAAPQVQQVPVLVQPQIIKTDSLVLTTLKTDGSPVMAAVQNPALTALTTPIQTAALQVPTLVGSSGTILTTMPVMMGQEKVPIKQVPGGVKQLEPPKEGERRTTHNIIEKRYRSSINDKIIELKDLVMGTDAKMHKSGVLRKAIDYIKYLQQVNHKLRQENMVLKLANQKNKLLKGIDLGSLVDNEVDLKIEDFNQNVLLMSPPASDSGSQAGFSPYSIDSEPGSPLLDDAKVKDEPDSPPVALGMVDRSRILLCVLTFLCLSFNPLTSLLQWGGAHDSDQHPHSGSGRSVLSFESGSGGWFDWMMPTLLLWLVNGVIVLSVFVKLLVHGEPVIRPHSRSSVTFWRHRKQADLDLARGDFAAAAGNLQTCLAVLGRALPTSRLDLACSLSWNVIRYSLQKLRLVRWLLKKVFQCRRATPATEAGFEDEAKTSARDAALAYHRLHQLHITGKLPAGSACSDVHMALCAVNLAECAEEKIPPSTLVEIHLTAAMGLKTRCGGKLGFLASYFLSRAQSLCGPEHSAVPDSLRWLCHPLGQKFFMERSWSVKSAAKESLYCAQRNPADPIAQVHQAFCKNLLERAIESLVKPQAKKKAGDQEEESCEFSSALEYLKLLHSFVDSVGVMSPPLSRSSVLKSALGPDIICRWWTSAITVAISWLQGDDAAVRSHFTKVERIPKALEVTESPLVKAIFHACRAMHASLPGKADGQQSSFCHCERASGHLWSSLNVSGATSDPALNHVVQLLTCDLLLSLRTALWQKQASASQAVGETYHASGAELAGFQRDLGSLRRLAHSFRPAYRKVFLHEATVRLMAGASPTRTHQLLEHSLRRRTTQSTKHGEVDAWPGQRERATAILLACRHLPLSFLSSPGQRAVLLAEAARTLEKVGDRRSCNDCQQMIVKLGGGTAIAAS
Procedure: 10,000 cells/well of the PathHunter U2OS SREBP-2 Nuclear Translocation Cell Line are plated in quadruplicate on 384 well plates in 20 μL of AssayComplete cell plating 5 reagent (CP5-high serum) overnight at 37° C./5% CO2. A dilution series of test compound is added to cells, incubated for 1 hour at 37° C./5% CO2, and U18666A (a known SREBP agonist) is added to a final concentration of 10 μM. The plate is incubated overnight (16 hours) at 37° C./5% CO2. PathHunter Flash detection mix is added to the wells, incubated one hour in the dark, and the plate read on an Envision luminometer.

[2] = biological target: T2, Oxysterols receptor LXR-beta (Homo sapiens, UniProt P55055); assay: In Vitro Assay-LXRβ
T2 sequence (P55055 whole entry): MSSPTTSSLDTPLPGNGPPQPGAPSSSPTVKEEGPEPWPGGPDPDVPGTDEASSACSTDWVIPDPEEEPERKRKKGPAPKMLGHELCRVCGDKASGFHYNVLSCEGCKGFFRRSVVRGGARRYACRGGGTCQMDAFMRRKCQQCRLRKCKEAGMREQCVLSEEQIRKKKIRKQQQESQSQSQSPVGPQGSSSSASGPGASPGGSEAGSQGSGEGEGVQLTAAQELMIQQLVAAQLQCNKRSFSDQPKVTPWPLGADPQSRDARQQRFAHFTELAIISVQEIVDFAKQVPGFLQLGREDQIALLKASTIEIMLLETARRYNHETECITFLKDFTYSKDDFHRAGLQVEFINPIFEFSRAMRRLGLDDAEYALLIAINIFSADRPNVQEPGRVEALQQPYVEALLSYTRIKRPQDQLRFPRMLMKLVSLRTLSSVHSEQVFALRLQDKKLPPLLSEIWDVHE
Procedure: PathHunter NHR CHO cells stably transfected with tagged full-length human LXRβ and a nuclear fusion protein containing Steroid Receptor Co-activator Peptide (SRCP). The full-length human LXRβ was tagged with the ProLink component of the DiscoverX Enzyme Fragment Complementation (EFC) system and the SRCP domain is fused to the enzyme acceptor component (EA) expressed in the nucleus. Cells were seeded in a total volume of 20 μL into white walled, 384-well microplates and incubated at 37 C. overnight prior to testing. Assay media contained charcoal-dextran filtered serum to reduce the level of hormones present. Final assay vehicle concentration was 1%. […] Microplates were read following signal generation with a PerkinElmer Envision instrument for chemiluminescent signal detection.

| IC50 [2] | SMILES | IC50 [1] [nM] |
| --- | --- | --- |
|  | C[C@H](CCC(=O)N1CCN(C(=O)c2ccnnc2)CC1)[C@H]1CC[C@H]2[C@@H]3CC=C4C[C@@H](O)CC[C@]4(C)[C@H]3CC[C@]12C [US20230340011, Example 389.] | ≤ 250 |
|  | COC(=O)N1CCN(C(=O)CCC[C@H]2CC[C@H]3[C@@H]4CC=C5C[C@@H](O)CC[C@]5(C)[C@H]4CC[C@]23C)CC1 [US20230340011, Example 421.] | ≤ 250 |
|  | CCOC(=O)N1CCN(C(=O)CC[C@@H](C)[C@H]2CC[C@H]3[C@@H]4CC=C5C[C@@H](O)CC[C@]5(C)[C@H]4CC[C@]23C)CC1 [US20230340011, Example 422.] | ≤ 250 |
| in the range around 5500 nM | Cc1cccc(/C=C/[C@@H](C)[C@H]2CC[C@H]3[C@@H]4CC=C5C[C@@H](O)CC[C@]5(C)[C@H]4CC[C@]23C)n1 [US20230340011, Example 132.] |  |
